Measured values published in ChEMBL document CHEMBL1148695, “Synthesis and biological activity of nociceptin/orphanin FQ analogues substituted in position 7 or 11 with Calpha,alpha-dialkylated amino acids” (Bioorg Med Chem, 2007).
Where “and” joins values, the source holds several entries; their conditions need not be identical. Equal values may be shown once.

Tests used:
[1] = target: Nociceptin receptor (Mus musculus) (UniProt P35377); experiment: (§1) Agonist activity at NOP receptor in Swiss mouse vas deferens assessed as effect on electrically stimulated contractions; format: functional, tissue-based
Sequence of Nociceptin receptor (Mus musculus) (P35377 whole entry): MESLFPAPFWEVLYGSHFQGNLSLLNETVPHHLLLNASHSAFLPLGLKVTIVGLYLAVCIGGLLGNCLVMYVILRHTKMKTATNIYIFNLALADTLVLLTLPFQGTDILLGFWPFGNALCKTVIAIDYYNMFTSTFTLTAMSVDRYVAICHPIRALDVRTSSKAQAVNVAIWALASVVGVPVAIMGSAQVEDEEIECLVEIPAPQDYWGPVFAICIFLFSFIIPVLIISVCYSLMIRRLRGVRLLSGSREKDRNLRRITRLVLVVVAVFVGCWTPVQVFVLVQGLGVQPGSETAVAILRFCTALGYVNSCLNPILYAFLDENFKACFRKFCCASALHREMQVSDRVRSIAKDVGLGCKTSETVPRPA

[2] = target: Nociceptin receptor (Mus musculus, UniProt P35377); experiment: as §1; format: functional, tissue-based
Sequence of Nociceptin receptor (P35377 whole entry): as above

| Compound | Emax [1] | EC50 [2] [µM] |
| --- | --- | --- |
| CCCC(CCC)(NC(=O)CNC(=O)[C@@H](NC(=O)[C@H](Cc1ccccc1)NC(=O)CNC(=O)CNC(=O)[C@@H](N)Cc1ccccc1)[C@@H](C)O)C(=O)N[C@@H](CCCNC(=N)N)C(=O)N[C@@H](CCCCN)C(=O)N[C@@H](CO)C(=O)N[C@@H](C)C(=O)N[C@@H](CCCNC(=N)N)C(=O)N[C@@H](CCCCN)C(=O)N[C@@H](CC(C)C)C(=O)N[C@@H](C)C(=O)N[C@@H](CC(N)=O)C(=O)N[C@@H](CCC(N)=O)C(N)=O | 91% | 0.0126 |
| CC(C)C[C@H](NC(=O)[C@H](CCCCN)NC(=O)[C@H](CCCNC(=N)N)NC(=O)[C@H](C)NC(=O)[C@H](CO)NC(=O)[C@H](CCCCN)NC(=O)[C@H](CCCNC(=N)N)NC(=O)C(C)(NC(=O)CNC(=O)[C@@H](NC(=O)[C@H](Cc1ccccc1)NC(=O)CNC(=O)CNC(=O)[C@@H](N)Cc1ccccc1)[C@H](C)O)C(C)C)C(=O)N[C@@H](C)C(=O)N[C@@H](CC(N)=O)C(=O)N[C@@H](CCC(N)=O)C(N)=O (some centres not stated) | 88% and 95% |  |
| CC(C)C[C@H](NC(=O)[C@H](CCCCN)NC(=O)[C@H](CCCNC(=N)N)NC(=O)C(C)(C)NC(=O)[C@H](CO)NC(=O)[C@H](CCCCN)NC(=O)[C@H](CCCNC(=N)N)NC(=O)[C@H](C)NC(=O)CNC(=O)[C@@H](NC(=O)[C@H](Cc1ccccc1)NC(=O)CNC(=O)CNC(=O)[C@@H](N)Cc1ccccc1)[C@@H](C)O)C(=O)N[C@@H](C)C(=O)N[C@@H](CC(N)=O)C(=O)N[C@@H](CCC(N)=O)C(N)=O | 91% | 0.00891 |
| CC[C@](C)(NC(=O)CNC(=O)[C@@H](NC(=O)[C@H](Cc1ccccc1)NC(=O)CNC(=O)CNC(=O)[C@@H](N)Cc1ccccc1)[C@@H](C)O)C(=O)N[C@@H](CCCNC(=N)N)C(=O)N[C@@H](CCCCN)C(=O)N[C@@H](CO)C(=O)N[C@@H](C)C(=O)N[C@@H](CCCNC(=N)N)C(=O)N[C@@H](CCCCN)C(=O)N[C@@H](CC(C)C)C(=O)N[C@@H](C)C(=O)N[C@@H](CC(N)=O)C(=O)N[C@@H](CCC(N)=O)C(N)=O [listing 1 of 3 here] | 91% and 88% |  |
| CC[C@](C)(NC(=O)CNC(=O)[C@@H](NC(=O)[C@H](Cc1ccccc1)NC(=O)CNC(=O)CNC(=O)[C@@H](N)Cc1ccccc1)[C@@H](C)O)C(=O)N[C@@H](CCCNC(=N)N)C(=O)N[C@@H](CCCCN)C(=O)N[C@@H](CO)C(=O)N[C@@H](C)C(=O)N[C@@H](CCCNC(=N)N)C(=O)N[C@@H](CCCCN)C(=O)N[C@@H](CC(C)C)C(=O)N[C@@H](C)C(=O)N[C@@H](CC(N)=O)C(=O)N[C@@H](CCC(N)=O)C(N)=O [listing 2 of 3 here] |  | 0.024 |
| CC(C)C[C@H](NC(=O)[C@H](CCCCN)NC(=O)[C@H](CCCNC(=N)N)NC(=O)[C@H](C)NC(=O)[C@H](CO)NC(=O)[C@H](CCCCN)NC(=O)[C@H](CCCNC(=N)N)NC(=O)C(C)(CC(C)C)NC(=O)CNC(=O)[C@@H](NC(=O)[C@H](Cc1ccccc1)NC(=O)CNC(=O)CNC(=O)[C@@H](N)Cc1ccccc1)[C@@H](C)O)C(=O)N[C@@H](C)C(=O)N[C@@H](CC(N)=O)C(=O)N[C@@H](CCC(N)=O)C(N)=O (some centres not stated) [listing 1 of 2 here] |  | 0.0759 |
| CCC(C)(NC(=O)[C@H](CO)NC(=O)[C@H](CCCCN)NC(=O)[C@H](CCCNC(=N)N)NC(=O)[C@H](C)NC(=O)CNC(=O)[C@@H](NC(=O)[C@H](Cc1ccccc1)NC(=O)CNC(=O)CNC(=O)[C@@H](N)Cc1ccccc1)[C@@H](C)O)C(=O)N[C@@H](CCCNC(=N)N)C(=O)N[C@@H](CCCCN)C(=O)N[C@@H](CC(C)C)C(=O)N[C@@H](C)C(=O)N[C@@H](CC(N)=O)C(=O)N[C@@H](CCC(N)=O)C(N)=O (some centres not stated) | 90% |  |
| CC(C)C[C@H](NC(=O)[C@H](CCCCN)NC(=O)[C@H](CCCNC(=N)N)NC(=O)[C@H](C)NC(=O)[C@H](CO)NC(=O)[C@H](CCCCN)NC(=O)[C@H](CCCNC(=N)N)NC(=O)C(C)(NC(=O)CNC(=O)[C@@H](NC(=O)[C@H](Cc1ccccc1)NC(=O)CNC(=O)CNC(=O)[C@@H](N)Cc1ccccc1)[C@@H](C)O)C(C)C)C(=O)N[C@@H](C)C(=O)N[C@@H](CC(N)=O)C(=O)N[C@@H](CCC(N)=O)C(N)=O (some centres not stated) [listing 1 of 2 here] |  | 0.0275 |
| CC(C)C[C@H](NC(=O)[C@H](CCCCN)NC(=O)[C@H](CCCNC(=N)N)NC(=O)[C@H](C)NC(=O)[C@H](CO)NC(=O)[C@H](CCCCN)NC(=O)[C@H](CCCNC(=N)N)NC(=O)C(C)(NC(=O)CNC(=O)[C@@H](NC(=O)[C@H](Cc1ccccc1)NC(=O)CNC(=O)CNC(=O)[C@@H](N)Cc1ccccc1)[C@@H](C)O)C(C)C)C(=O)N[C@@H](C)C(=O)N[C@@H](CC(N)=O)C(=O)N[C@@H](CCC(N)=O)C(N)=O (some centres not stated) [listing 2 of 2 here] |  | 0.055 |
| CC[C@](C)(NC(=O)CNC(=O)[C@@H](NC(=O)[C@H](Cc1ccccc1)NC(=O)CNC(=O)CNC(=O)[C@@H](N)Cc1ccccc1)[C@@H](C)O)C(=O)N[C@@H](CCCNC(=N)N)C(=O)N[C@@H](CCCCN)C(=O)N[C@@H](CO)C(=O)N[C@@H](C)C(=O)N[C@@H](CCCNC(=N)N)C(=O)N[C@@H](CCCCN)C(=O)N[C@@H](CC(C)C)C(=O)N[C@@H](C)C(=O)N[C@@H](CC(N)=O)C(=O)N[C@@H](CCC(N)=O)C(N)=O [listing 3 of 3 here] |  | 0.0148 |
| CC(C)C[C@H](NC(=O)[C@H](CCCCN)NC(=O)[C@H](CCCNC(=N)N)NC(=O)C(C)(NC(=O)[C@H](CO)NC(=O)[C@H](CCCCN)NC(=O)[C@H](CCCNC(=N)N)NC(=O)[C@H](C)NC(=O)CNC(=O)[C@@H](NC(=O)[C@H](Cc1ccccc1)NC(=O)CNC(=O)CNC(=O)[C@@H](N)Cc1ccccc1)[C@@H](C)O)C(C)C)C(=O)N[C@@H](C)C(=O)N[C@@H](CC(N)=O)C(=O)N[C@@H](CCC(N)=O)C(N)=O (some centres not stated) [listing 1 of 3 here] | 93% and 86% |  |
| CC(C)C[C@H](NC(=O)[C@H](CCCCN)NC(=O)[C@H](CCCNC(=N)N)NC(=O)C(C)(NC(=O)[C@H](CO)NC(=O)[C@H](CCCCN)NC(=O)[C@H](CCCNC(=N)N)NC(=O)[C@H](C)NC(=O)CNC(=O)[C@@H](NC(=O)[C@H](Cc1ccccc1)NC(=O)CNC(=O)CNC(=O)[C@@H](N)Cc1ccccc1)[C@@H](C)O)C(C)C)C(=O)N[C@@H](C)C(=O)N[C@@H](CC(N)=O)C(=O)N[C@@H](CCC(N)=O)C(N)=O (some centres not stated) [listing 2 of 3 here] |  | 0.0195 |
| CC(C)C[C@H](NC(=O)[C@H](CCCCN)NC(=O)[C@H](CCCNC(=N)N)NC(=O)C(C)(NC(=O)[C@H](CO)NC(=O)[C@H](CCCCN)NC(=O)[C@H](CCCNC(=N)N)NC(=O)[C@H](C)NC(=O)CNC(=O)[C@@H](NC(=O)[C@H](Cc1ccccc1)NC(=O)CNC(=O)CNC(=O)[C@@H](N)Cc1ccccc1)[C@@H](C)O)C(C)C)C(=O)N[C@@H](C)C(=O)N[C@@H](CC(N)=O)C(=O)N[C@@H](CCC(N)=O)C(N)=O (some centres not stated) [listing 3 of 3 here] |  | 0.0148 |
| CC(C)C[C@H](NC(=O)[C@H](CCCCN)NC(=O)[C@H](CCCNC(=N)N)NC(=O)[C@H](C)NC(=O)[C@H](CO)NC(=O)[C@H](CCCCN)NC(=O)[C@H](CCCNC(=N)N)NC(=O)C(C)(CC(C)C)NC(=O)CNC(=O)[C@@H](NC(=O)[C@H](Cc1ccccc1)NC(=O)CNC(=O)CNC(=O)[C@@H](N)Cc1ccccc1)[C@@H](C)O)C(=O)N[C@@H](C)C(=O)N[C@@H](CC(N)=O)C(=O)N[C@@H](CCC(N)=O)C(N)=O (some centres not stated) [listing 2 of 2 here] |  | 0.0468 |
| CC(C)C[C@H](NC(=O)[C@H](CCCCN)NC(=O)[C@H](CCCNC(=N)N)NC(=O)[C@H](C)NC(=O)[C@H](CO)NC(=O)[C@H](CCCCN)NC(=O)[C@H](CCCNC(=N)N)NC(=O)C(C)(CC(C)C)NC(=O)CNC(=O)[C@@H](NC(=O)[C@H](Cc1ccccc1)NC(=O)CNC(=O)CNC(=O)[C@@H](N)Cc1ccccc1)[C@H](C)O)C(=O)N[C@@H](C)C(=O)N[C@@H](CC(N)=O)C(=O)N[C@@H](CCC(N)=O)C(N)=O (some centres not stated) | 84% and 95% |  |
